SMILES strings stand for the structures. pIC50: −log10 of the molar value. Like-named read-outs stand apart in the source and are kept apart here.

The target in assay [1] is Class C β-lactamase of Enterobacter cloacae P-99, a cephalosporinase (Enterobacter cloacae, UniProt P05364). Briefly: biochemical. The protocol:
(§1) Representative compounds of formula (I) were evaluated as inhibitors of the Class C β-lactamase of Enterobacter cloacae P-99, a cephalosporinase, and TEM-1, a Class A penicillinase, by relative IC50 analysis. The IC50 value represents the concentration of inhibitor required to effect a 50% loss of activity of free enzyme. The IC50 value of each compound was determined as follows. Following a 10 minute incubation of a dilute solution of enzyme (2.56 nM) and inhibitor (<0.64 mM), a […] of this incubation mixture was then further diluted into 1 mL nitrocefin solution, and the rate of hydrolysis was measured during a 1 minute period by monitoring the absorbance of nitrocefin as a function of time.

Assay [2] has as its target TEM-1, a Class A penicillinase (Escherichia coli, UniProt P62593). In words: beta-lactamase inhibition, relative IC50 analysis by nitrocefin hydrolysis (class A enzyme). The format is biochemical. Conditions: class A β-lactamase; 10 minute incubation of enzyme (2.56 nM) and inhibitor; nitrocefin substrate. The protocol:
as §1

Setting [3] is: class C β-lactamase, 10 minute incubation of enzyme (2.56 nM) and inhibitor, nitrocefin substrate, read-out: P99 (IC50, μm).

TEM-1, a Class A penicillinase, sequence (P62593 24-286 limits assumed): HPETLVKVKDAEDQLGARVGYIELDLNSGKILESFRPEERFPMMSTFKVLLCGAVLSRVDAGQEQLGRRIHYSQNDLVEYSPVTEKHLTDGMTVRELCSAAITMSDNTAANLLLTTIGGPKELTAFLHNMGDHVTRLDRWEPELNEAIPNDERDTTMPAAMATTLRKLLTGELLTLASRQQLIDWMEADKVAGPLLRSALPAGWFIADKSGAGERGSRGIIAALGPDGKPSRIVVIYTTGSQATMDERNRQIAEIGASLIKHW
Class C β-lactamase of Enterobacter cloacae P-99, a cephalosporinase, sequence (P05364 21-381): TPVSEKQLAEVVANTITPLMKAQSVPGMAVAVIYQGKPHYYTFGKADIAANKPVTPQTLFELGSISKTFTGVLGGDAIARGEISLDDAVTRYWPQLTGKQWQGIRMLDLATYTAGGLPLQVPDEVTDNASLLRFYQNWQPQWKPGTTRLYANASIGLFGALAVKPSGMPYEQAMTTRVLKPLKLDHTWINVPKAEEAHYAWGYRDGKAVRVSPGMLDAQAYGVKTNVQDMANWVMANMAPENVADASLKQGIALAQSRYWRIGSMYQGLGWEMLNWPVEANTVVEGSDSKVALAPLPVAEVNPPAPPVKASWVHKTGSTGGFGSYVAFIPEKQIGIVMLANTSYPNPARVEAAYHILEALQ

Turning to `O=C(O)C1=C(Cl)CS(=O)(=O)C2C(=Cc3ccccn3)C(=O)N12` (centres unmarked) [Compound 7a, Sodium 3-chloro-1,1-dioxo-7-(2′-pyridylmethylidine)-3-cephem-4-carboxylate], the values for the pIC50 in assay [1] (setting [3]) and in assay [2] were 8.52 and 5.74, respectively.
For `O=C(O)C1=C(Br)CS(=O)(=O)C2C(=Cc3ccccn3)C(=O)N12` (centres unmarked) [Compound 7b, Sodium 3-bromo-1,1-dioxo-7-(2′-pyridylmethylidine)-3-cephem-4-carboxylate], the negative-log IC50 (pIC50) in assay [1] was 8.54; in assay [2], 6.10.
Consider `O=C(O)C1=C(I)CS(=O)(=O)C2C(=Cc3ccccn3)C(=O)N12` (centres unmarked) [Compound 7c, Sodium 1,1-dioxo-3-iodo-7-(2′-pyridylmethylidine)-3-cephem-4-carboxylate], for which the results for the pIC50 in assay [1] and in assay [2] were 8.33 and 5.89, respectively.
As for `CSC1=C(C(=O)O)N2C(=O)C(=Cc3ccccn3)C2S(=O)(=O)C1` (centres unmarked) [Compound 9a, Sodium 1,1-dioxo-3-methylsulfanyl-7-(2′-pyridylmethylidine)-3-cephem-4-carboxylate], the pIC50 in assay [1] was 7.23; in assay [2], 5.97.
`O=C(O)C1=C(Sc2ccccc2)CS(=O)(=O)C2C(=Cc3ccccn3)C(=O)N12` (centres unmarked) [Compound 9b, Sodium 1,1-dioxo-3-phenylsulfanyl-7-(2′-pyridylmethylidine)-3-cephem-4-carboxylate]: the negative logarithm of the IC50 (pIC50) was 7.66 in assay [1] (setting [3]) and 7.92 in assay [2].
Consider `O=C(O)C1=C(c2cccs2)CS(=O)(=O)C2C(=Cc3ccccn3)C(=O)N12` (centres unmarked) [Compound 9c, Sodium 1,1-dioxo-7-(2′-pyridylmethylidine)-3-(thiophen-2′-yl)-3-cephem-4-carboxylate], for which the pIC50 in assay [1] is 7.37; in assay [2], 5.45.
As to `O=C(O)C1=C(c2ccccc2)CS(=O)(=O)C2C(=Cc3ccccn3)C(=O)N12` (centres unmarked) [Compound 9d, Sodium 1,1-dioxo-3-phenyl-7-(2′-pyridylmethylidine)-3-cephem-4-carboxylate], the figures for the negative-log IC50 (pIC50) in assay [1] (setting [3]) and in assay [2] were 7.42 and 5.04, respectively.
`CS(=O)(=O)C1=C(C(=O)O)N2C(=O)C(=Cc3ccccn3)C2S(=O)(=O)C1` (centres unmarked) [Compound 11a, Sodium 1,1-dioxo-3-methylsulfonyl-7-(2′-pyridylmethylidine)-3-cephem-4-carboxylate]: the pIC50 was 7.04 in assay [1] and 8.12 in assay [2].
For `O=C(O)C1=C(S(=O)(=O)c2ccccc2)CS(=O)(=O)C2C(=Cc3ccccn3)C(=O)N12` (centres unmarked) [Compound 11b, Sodium 1,1-dioxo-3-phenylsulfonyl-7-(2′-pyridylmethylidine)-3-cephem-4-carboxylate], the negative logarithm of the IC50 (pIC50) is 6.76 in assay [1] and 8.03 in assay [2].
With `O=C(O)C1=C(F)CS(=O)(=O)C2C(=Cc3ccccn3)C(=O)N12` (centres unmarked) [Compound 14a, Sodium 1,1-dioxo-3-fluoro-7-(2′-pyridylmethylidine)-3-cephem-4-carboxylate], the pIC50 was 7.96 in assay [1] (setting [3]) and 5.74 in assay [2].
Regarding `O=C(O)C1=CCS(=O)(=O)C2C(=Cc3ccccn3)C(=O)N12` (centres unmarked) [Compound 14b, Sodium 1,1-dioxo-7-(2 ′-pyridylmethylidine)-3-cephem-4-carboxylate], the negative-log IC50 (pIC50) in assay [1] was 6.94; in assay [2], 4.73.
Take `O=C(C=CC1=C(C(=O)O)N2C(=O)C(=Cc3ccccn3)C2S(=O)(=O)C1)NC1CC1` (centres unmarked) [Compound 18a]: the pIC50 in assay [1] (setting [3]) is 6.08; in assay [2], 6.62.
For the compound `O=C(C=CC1=C(C(=O)O)N2C(=O)C(=Cc3ccccn3)C2S(=O)(=O)C1)NO` (centres unmarked) [Compound 18b, Sodium 3-(N-hydroxy-2′-carbamoylvinyl)-1,1-dioxo-7-(2″-pyridylmethylidine)-3-cephem-4-carboxylate], the negative-log IC50 (pIC50) in assay [1] is 6.89; in assay [2], 5.11.
For `NNC(=O)C=CC1=C(C(=O)O)N2C(=O)C(=Cc3ccccn3)C2S(=O)(=O)C1` (centres unmarked) [Compound 21a], the pIC50 in assay [1] (setting [3]) is 5.96; in assay [2], 6.41.
For `NCCCNC(=O)C=CC1=C(C(=O)O)N2C(=O)C(=Cc3ccccn3)C2S(=O)(=O)C1` (centres unmarked) [Compound 21b, Sodium 3-{[N-(3″-aminopropyl)-2′-carbamoyl]vinyl)}-1,1-dioxo-7-(2′″-pyridylmethylidine-3-cephem-4-carboxylate], in that order: 5.38 and 5.80.
With `CN1CCN(C(=O)C=CC2=C(C(=O)O)N3C(=O)C(=Cc4ccccn4)C3S(=O)(=O)C2)CC1` (centres unmarked) [Compound 21c, Sodium 3-[3 ′-(4″-methylpiperazin-1″-yl)-3′-oxopropenyl]-1,1-dioxo-7-(2′″-puridylmethylidine)-3-cephem-4-carboxylate], the negative-log IC50 (pIC50) was 5.20 in assay [1] and 7.28 in assay [2].

The term pIC50 denotes the negative decadic logarithm of the IC50, by convention in mol/L.

Source of the values: patent publication US6916801B2, “7-Alkylidene-3-substituted-3-cephem-4-carboxylates as β-lactamase inhibitors” (Alamx, LLC, priority 2001, dated 2005).
